Assay results published in US10219516B2, “Molecules having pesticidal utility, and intermediates, compositions, and processes, related thereto” (priority 2015, dated 2019).

Tests used:
[1] = tested on: Beet Armyworm (Spodoptera exigua, LAPHEG); test: Bioassay on Beet Armyworm (BAW), 128-well diet tray assay; format: in vivo; conditions: Species BAW (Beet Armyworm), read-out: BAW (Biological Results, rating)
Description: (§1) Certain molecules disclosed in this document were tested against BAW and CL using procedures described in the following examples. In the reporting of the results, the “BAW & CL Rating Table” was used (See Table Section).
Bioassays on BAW were conducted using a 128-well diet tray assay. One to five second instar BAW larvae were placed in each well (3 mL) of the diet tray that had been previously filled with approximately 1.5 mL of artificial diet to which 50 μg/cm^2 of the test molecule (dissolved in 50 μL of 90:10 acetone-water mixture) had been applied (to each of eight wells) and then allowed to dry. Trays were covered with a clear self-adhesive cover, vented to allow gas exchange, and held at 25° C., 14:10 light-dark for five to seven days. Percent mortality was recorded for the larvae in each well; activity in the eight wells was then averaged. The results are indicated in the table entitled “Table ABC: Biological Results” (See Table Section).

[2] = tested on: Cabbage Looper (Trichoplusia ni, TRIPNI); test: Bioassay on Cabbage Looper (CL), 128-well diet tray assay; format: in vivo; conditions: Trichoplusia ni; Species CL (Cabbage Looper); read-out: CL (Biological Results, rating)
Description: as §1
Bioassays on CL were conducted using a 128-well diet tray assay. one to five second instar CL larvae were placed in each well (3 mL) of the diet tray that had been previously filled with 1 mL of artificial diet to which 50 μg/cm^2 of the test molecule (dissolved in 50 μL of 90:10 acetone-water mixture) had been applied (to each of eight wells) and then allowed to dry. Trays were covered with a clear self-adhesive cover, vented to allow gas exchange, and held at 25° C., 14:10 light-dark for five to seven days. Percent mortality was recorded for the larvae in each well; activity in the eight wells was then averaged. The results are indicated in the table entitled “Table ABC: Biological Results” (See Table Section).

Compound	pest or weed control at 50 µg/cm2 [1]	pest or weed control at 50 µg/cm2 [2]
CN(C(=O)c1cc(NC(=O)[C@H]2[C@H](c3ccccc3)C2(Cl)Cl)ccc1Cl)c1ccc(F)cc1 (relative stereo) [F110, trans-2-Chloro-5-(2,2-dichloro-3-phenylcyclopropane-1-carboxamido)-N-(4-fluorophenyl)-N-methylbenzamide]	50 to 100%	50 to 100%
O=C(Nc1c(F)cccc1F)c1cc(NC(=O)[C@H]2[C@H](c3ccccc3)C2(Cl)Cl)ccc1Cl (relative stereo) [F111, trans-2-Chloro-5-(2,2-dichloro-3-phenylcyclopropane-1-carboxamido)-N-(2,6-difluorophenyl)benzamide]	50 to 100%	50 to 100%
CN(C(=S)c1cc(NC(=O)[C@H]2[C@H](c3cc(Cl)cc(Cl)c3)C2(Cl)Cl)ccc1Cl)c1ccc(F)cc1 (relative stereo) [F112, trans-2,2-Dichloro-N-(4-chloro-3-((4-fluorophenyl)(methyl)carbamothioyl)phenyl)-3-(3,5-dichlorophenyl)cyclopropane-1-carboxamide]	50 to 100%	50 to 100%
O=C(Nc1ccc(Cl)c(C(=S)Nc2ccc(F)cc2)c1)[C@H]1[C@H](c2cc(Cl)cc(Cl)c2)C1(Cl)Cl (relative stereo) [F113, trans-2,2-Dichloro-N-(4-chloro-3-((4-fluorophenyl)carbamothioyl)phenyl)-3-(3,5-dichlorophenyl)cyclopropane-1-carboxamide]	50 to 100%	50 to 100%
CSc1ccc(NC(=O)[C@H]2[C@H](c3cc(Cl)cc(Cl)c3)C2(Cl)Cl)cc1C(=O)Nc1ccc(F)cc1 (relative stereo) [F115, trans-5-(2,2-Dichloro-3-(3,5-dichlorophenyl)cyclopropane-1-carboxamido)-N-(4-fluorophenyl)-2-(methylthio)benzamide]	50 to 100%	50 to 100%
Cc1c(Cl)cc([C@H]2[C@H](C(=O)Nc3ccc(Cl)c(C(=O)Nc4ccc(F)cc4)c3)C2(Cl)Cl)cc1Cl (relative stereo) [F119, trans-2-Chloro-5-(2,2-dichloro-3-(3,5-dichloro-4-methylphenyl)cyclopropane-1-carboxamido)-N-(4-fluorophenyl)benzamide]	50 to 100%	50 to 100%
Cc1c(Cl)cc([C@H]2[C@H](C(=O)Nc3ccc(Cl)c(C(=O)N(C)c4ccc(F)cc4)c3)C2(Cl)Cl)cc1Cl (relative stereo) [F120, trans-2-Chloro-5-(2,2-dichloro-3-(3,5-dichloro-4-methylphenyl)cyclopropane-1-carboxamido)-N-(4-fluorophenyl)-N-methylbenzamide]	50 to 100%	50 to 100%
Cc1c(Cl)cc([C@H]2[C@H](C(=O)Nc3ccc(Cl)c(C(=O)Nc4c(F)cccc4F)c3)C2(Cl)Cl)cc1Cl (relative stereo) [F121, trans-2-Chloro-5-(2,2-dichloro-3-(3,5-dichloro-4-methylphenyl)cyclopropane-1-carboxamido)-N-(2,6-difluorophenyl)benzamide]	50 to 100%	50 to 100%
Cc1cc([C@H]2[C@H](C(=O)Nc3ccc(Cl)c(C(=O)Nc4c(F)cccc4F)c3)C2(Cl)Cl)cc(Cl)c1Cl (relative stereo) [F125, trans-2-Chloro-5-(2,2-dichloro-3-(3,4-dichloro-5-methylphenyl)cyclopropane-1-carboxamido)-N-(2,6-difluorophenyl)benzamide]	50 to 100%	50 to 100%
O=C(Nc1ccc(F)cc1)c1cccc(NC(=O)[C@H]2[C@H](c3cc(Cl)cc(Cl)c3)C2(Cl)Cl)n1 (relative stereo) [F133, trans-6-(2,2-Dichloro-3-(3,5-dichlorophenyl)cyclopropane-1-carboxamido)-N-(4-fluorophenyl)picolinamide]	50 to 100%	50 to 100%
Cc1ccc(C(=O)Nc2ccc(F)cc2)cc1NC(=O)[C@H]1[C@H](c2cc(Cl)cc(Cl)c2)C1(Cl)Cl (relative stereo) [F134, trans-3-(2,2-Dichloro-3-(3,5-dichlorophenyl)cyclopropane-1-carboxamido)-N-(4-fluorophenyl)-4-methylbenzamide]	50 to 100%	50 to 100%
O=C(Nc1ccc([N+](=O)[O-])cc1)c1cc(NC(=O)[C@H]2[C@H](c3cc(Cl)cc(Cl)c3)C2(Cl)Cl)ccc1Cl (relative stereo) [F137, trans-2-chloro-5-(2,2-dichloro-3-(3,5-dichlorophenyl)cyclopropane-1-carboxamido)-N-(4-nitrophenyl)benzamide]	50 to 100%	50 to 100%
O=C(Nc1cnns1)c1cc(NC(=O)[C@H]2[C@H](c3cc(Cl)cc(Cl)c3)C2(Cl)Cl)ccc1Cl (relative stereo) [F138, trans-2-Chloro-5-(2,2-dichloro-3-(3,5-dichlorophenyl)cyclopropane-1-carboxamido)-N-(1,2,3-thiadiazol-5-yl)benzamide]	50 to 100%	50 to 100%
O=C(Nc1cc[n+]([O-])cc1)c1cc(NC(=O)[C@H]2[C@H](c3cc(Cl)cc(Cl)c3)C2(Cl)Cl)ccc1Cl (relative stereo) [F140, trans-4-(2-Chloro-5-(2,2-dichloro-3-(3,5-dichlorophenyl)cyclopropane-1-carboxamido)benzamido)pyridine 1-oxide]	50 to 100%	50 to 100%
O=C(Nc1ccc(F)cc1)c1cc(NC(=O)[C@H]2[C@H](c3cc(Cl)cc(Cl)c3)C2(Cl)Cl)cc[n+]1[O-] (relative stereo) [F141, trans-4-(2,2-Dichloro-3-(3,5-dichlorophenyl)cyclopropane-1-carboxamido)-2-((4-fluorophenyl)carbamoyl)pyridine 1-oxide]	50 to 100%	50 to 100%
CS(=O)(=O)c1ccc(NC(=O)c2cc(NC(=O)[C@H]3[C@H](c4cc(Cl)cc(Cl)c4)C3(Cl)Cl)ccc2Cl)cc1 (relative stereo) [F143, trans-2-Chloro-5-(2,2-dichloro-3-(3,5-dichlorophenyl)cyclopropane-1-carboxamido)-N-(4-(methylsulfonyl)phenyl)benzamide]	50 to 100%	50 to 100%
N#Cc1ccc(NC(=O)c2cc(NC(=O)[C@H]3[C@H](c4cc(Cl)cc(Cl)c4)C3(Cl)Cl)ccc2Cl)c(F)c1 (relative stereo) [F144, trans-2-Chloro-N-(4-cyano-2-fluorophenyl)-5-(2,2-dichloro-3-(3,5-dichlorophenyl)cyclopropane-1-carboxamido)benzamide]	50 to 100%	50 to 100%
O=C(Nc1ncco1)c1cc(NC(=O)[C@H]2[C@H](c3cc(Cl)cc(Cl)c3)C2(Cl)Cl)ccc1Cl (relative stereo) [F145, trans-2-Chloro-5-(2,2-dichloro-3-(3,5-dichlorophenyl)cyclopropane-1-carboxamido)-N-(oxazol-2-yl)benzamide]	50 to 100%	50 to 100%
